The values that follow come from patent US4489061A, “Treatment of male mammals” (The Salk Institute for Biological Studies, priority 1982, dated 1984).

For data set [1], the system named is release of gonadotropins by the pituitary gland. The note with it: versus [des His2]-LRF; cited from earlier work.
The next data set deals with male rats. The data set is described as follows: 14-day daily injection in male rats: gonadal function, hormones, androgen-dependent behavior, fertility and recovery. The note with it: 1 milligram daily for 14 days. The format is in vivo, rat. From the text: The peptide is used at a level effective to reduce testes and seminal vesicles weights and also to inhibit spermatogenesis after a 14-day administration to male rats. […] Prostate weights of male rats recover in 2-3 weeks and seminal vesicles weights in 4-5 weeks. It is preferred to use dosage levels in the range of from about 0.1 to about 1 milligram per rat per day, which can be administered without detrimental side effects.
Male rats (about 320 grams each) are each treated with 1 milligram of the peptide synthesized in Example I, once a day, for 14 days by injection in 0.2 ml. of corn oil. All the rats show a decrease in testes and seminal vesicles weight, spermatogenesis and plasma androgen levels.
Full recovery of testes and seminal vesicle weights, androgen-dependent behavior and spermatogenesis ultimately occurs following cessation of the 14-day peptide administration. […] Fertility, as assessed by the ability to impregnate females, is restored in all of the rats which have not been sacrificed within 6 weeks after cessation of the injections.
A first group (I) of male rats (about 320 grams each) are each treated with 1 milligram of Peptide A synthesized in Example III, every day for 14 days, by injection in 0.2 ml. of corn oil. All the rats show a decrease in testes and seminal vesicles weight, spermatogenesis and plasma androgen levels. […]

Where a SMILES comes first, the peptide text is derived from it. [ ]: non-standard residue; d: D form. dPhe(4-Cl) = N[C@H](Cc1ccc(Cl)cc1)C(=O)O; NMeL = CN[C@@H](CC(C)C)C(=O)O; pGlu = O=C1CC[C@@H](C(=O)O)N1; ΔPro = O=C(O)[C@@H]1C=CCN1

As to “[pGlu]WSY[dA]LRPG-NH2 [[des His^2, D-Ala^6]-LRF]”, the “potency as inhibitor of the release of gonadotropins, relative to the same peptide with Gly in the 6-position” value in data set [1] is listed as 3 times more potent.
On to `CC(=O)N1CC=C[C@H]1C(=O)N[C@H](Cc1ccc(Cl)cc1)C(=O)N[C@H](Cc1c[nH]c2ccccc12)C(=O)N[C@@H](CO)C(=O)N[C@@H](Cc1ccc(O)cc1)C(=O)N[C@H](Cc1c[nH]c2ccccc12)C(=O)N(C)[C@@H](CC(C)C)C(=O)N[C@@H](CCCNC(=N)N)C(=O)N1CCC[C@H]1C(=O)NCC(N)=O` [Example I, [Ac-dehydro Pro^1, pCl--D--Phe^2, D--Trp^3,6, NαMeLeu^7]-LRF] (Ac-[ΔPro][dPhe(4-Cl)][dW]SY[dW][NMeL]RPG-NH2), for which the “side effects / damage” value in the data set on male rats is “without harmful side effects or irreversible damage”.
